Assay [1] can be described thus: acute inflammatory pain model caused by subcutaneous capsaicin (paw lick latency). As to conditions: mice, intraperitoneal; for behavioral latency time (paw lick): carrier 20±5 s. Type of assay: in vivo. As for the experimental part: The analgesic activity of the products was determined by assessing their effect in the acute inflammatory pain model caused by subcutaneous administration of the capsaicin irritant. Administration of this vanilloid causes a neurogenic inflammation in animals with acute painful burning sensation resulting in thermal and mechanical hyperalgesia. The behavioral latency time to paw lick after intraperitoneal administration of the compounds to mice at different doses was monitored.

Assay [2] relates to afferent nerve fibers from the knee of the rat. The experiment in a line: nervous activity caused by capsaicin in afferent nerve fibers from the knee.
Assay [3] in a line: 52° C. hot plate nociception test. Type of assay: in vivo. As to conditions: mice, 10 mg/Kg intraperitoneal, carrier 11.5±2 s. As for the experimental part:
A 52° C. hot plate test was used as a nociception test, where the latency time to paw withdrawal or jump of the animal was monitored. The compounds were intraperitoneally administered to mice at a dose of 10 mg/Kg. The behavioral test was carried out at 30, 60 and 120 minutes after the administration of the compounds.

The subject of assay [4] is primary trigeminal neuronal cultures. In words: entrance of calcium cation stimulated by capsaicin in neuronal cultures. Type of assay: cell-based.

`N=C(N)NCCC[C@H](N)C(=O)N(CCc1ccc(Cl)cc1Cl)CC(=O)N(CCc1ccc(Cl)cc1Cl)CC(N)=O` [Example 1]: the results for the “behavioral latency time (paw lick)” value in assay [1] (2 mg/Kg), in assay [1] (5 mg/Kg) and in assay [1] (10 mg/Kg) were 90 ± 10 s, 190 ± 50 s and 250 ± 40 s, respectively. In assay [1] (2 to 10 mg/Kg), the “duration of the behavioral response” value is listed as “decreased as the dose of the compound increased”. In addition, in assay [2], the “block of the nervous activity caused by capsaicin” value worked out at 80%. Also, the “latency to the first response (paw withdrawal or jump)” value turned out to be 20 ± 4 s in assay [3] (30 minutes after), 18 ± 3 s in assay [3] (60 minutes after) and 18 ± 4 s in assay [3] (120 minutes after). Further, the “inhibition of the entrance of calcium cation stimulated by capsaicin” value in assay [4] came out at 85%.

The record behind these values is patent US7183430B2, “Compounds which can block the response to chemical substances or thermal stimuli or mediators of inflammation of nociceptors, production method thereof and compositions containing same” (Diverdrugs, S.L., priority 2002, dated 2007).
